Experimental data published in patent US20260356984A1, “DNA-AFFIBODY-DRUG NANOSTRUCTURES FOR INHIBITING TRIPLE NEGATIVE BREAST CANCER GROWTH AND METASTASIS” (ARIZONA BOARD OF REGENTS ON BEHALF OF ARIZONA STATE …, priority 2022, published 2026).

Tests used:
[1] = system: breast cancer; conditions: breast cancer patients; cited from earlier work
[2] = system: double-strand linear DNA (20 bp, 40 bp and 60 bp); assay: Linear double-strand DNA binding to THZ1 (1% agarose gel); conditions: 40-160 mM THZ1
Method: FIG. 9. Verification of linear DNA binding to THZ1. Double-strand linear DNAs were mixed with different amounts of THZ1 and loaded on 1% agarose gel. The gels were run at 150 V for 20 min, and stained with EtBr.
Binding of DNA to THZ1 was evaluated (FIG. 9). Double-strand linear DNAs (20 bp, 40 bp and 60 bp) were prepared by mixing two complimentary DNAs (as listed below) in 50 mM Tris-HCl, pH 7.5, containing 50 mM NaCl. The reaction mixtures were heated at 90 °C for 5 min, then cool to room temperature. To keep the same base-pair number for each same, the 20 bp DNA was adjusted to 2 mM; 40 bp DNA was adjusted to 1 mM; 60 bp DNA was adjusted to 0.67 mM. Then 40-160 mM THZ1 were added to each sample and loaded on 1% agarose gel.

[3] = system: DNA tetrahedron; assay: DNA-THZ1 binding assay (G-25 column, UV absorption 220 nm)
Method: FIGS. 3A-3B. DNA-THZ1 binding assay. (A) Analysis of binding ratio of THZ1 to DNA tetrahedron using UV absorption of THZ1 (220 nm). DNA tetrahedron (0.2 μM) was added different amounts of THZ1 (2-12 μM). The unbound THZ1 was removed through a Sephadex G-25 column for the detection samples. (B) Analysis of THZ1 binding to DNA tetrahedron (TH)-4ZHER1 using 1% agarose gel electrophoresis. The gel was run at 110 V for 1 h, and stained with ethidium bromide. Lanes 1-5, […] DNA tetrahedron (TH)-4ZHER1 incubated with 0-200 folds of THZ1.
DNA-THZ1 binding assay: The DNA binding property of THZ1 was evaluated following our reported method.^43 DNA tetrahedron was incubated with 10-60 fold of THZ1. After purification with G-25 column to remove unbound THZ1, the amount of THZ1 in the DNA tetrahedron was measured using UV absorption at 220 nm. […] Then we used a 1% agarose gel to analyze the binding property for high concentrations of THZ1. […] Thus, we used 50-fold of THZ1 to prepare DNA tetrahedron-4ZHER1-THZ1 nanostructure (I) for following assays.

[4] = system: MB231 breast cancer cells; assay: Transwell migration assay; assay type: cell-based; conditions: 500 nM THZ1; 24 h; p<0.001
Method: (§1) FIGS. 5A-5E. Migration assays for MB231 breast cancer cells. (A) without drug treatment; (B) treatment with THZ1; (C) treatment with nanostructure I; (D) Migration rate of MB231 (migrated cell numbers/control cell numbers×100%) (p<0.001); (E) Invasion rate of MB231 (invaded cell numbers/control cell numbers×100%) (p<0.001).
Migration assay: To verify whether nanostructure I blocks TNBC cell dissociation from aggregated cell clusters, a Transwell™ migration assay was performed. […] Since nanostructure I contains the same amount of THZ1, the enhanced inhibition of migration by nanostructure I is attributed to its ability to crosslink the cells. As a negative control, the migration of HER1 negative BT474 BC cells were not inhibited by I (FIG. 6A).

[5] = system: MB-231 cells; assay: Growth/death of MB-231 cells after 48 h incubation; assay type: cell-based; conditions: 500 nM THZ1
Method: (§2) FIGS. 4A-4H. Crosslinking of BC cells induced by I. MB-231 cells without drug treatment (A, D); with 500 nM THZ1 (B, E); with 10 nM I (C, F) were incubated 24 h and 48 h, respectively. (G) Calculated crosslinking efficiency of MB-231 cells in the presence of 10 nM I in 24 h (p<0.001); (H) Calculated crosslinking efficiency of BT474 cells in the presence of 10 nM I in 24 h.
(§3) Crosslinking assay: Crosslinking of TNBC cells by I was verified using a HER1 overexpressing TNBC cell line (MDA-MB-23146). In the presence of nanostructure I (containing 50 copies of THZ1), the cells were effectively crosslinked to each other through multiple ZHER1-HER1 bindings. […] The crosslinking efficiency was up to 96% in 24 h (FIG. 4G). [Crosslinking efficiency (%)=(cell number without any treatment-non-aggregated cell number)× 100%/(cell number without any treatment). Data were reported as the mean of three independent experiments].

[6] = system: MDA-MB-231 cells; assay: Crosslinking assay of HER1 overexpressing TNBC cells; assay type: cell-based; conditions: 500 nM free THZ1; 24 h
Method: as §2, §3

[7] = system: MB231 cancer cells; assay: Invasion assay (matrigel treated Transwell); assay type: cell-based; conditions: 500 nM THZ1; 24 h; p<0.001
Method: as §1
Invasion assay: To verify whether nanostructure I blocks cells from passing through vessel walls, an invasion assay was performed using a matrigel matrix treated Transwell™ to mimic the vessel wall. […] As a negative control, the invasion of HER1 negative BT474 BC cells were not affected by I (FIG. 6B).

[8] = system: TNBC; conditions: employed as a single agent; cited from earlier work

Compound: Patritumab deruxtecan: HER3 antibody drug conjugate
- clinical activity [1]: early and clinically meaningful activity

Compound: CN(C)C/C=C/C(=O)Nc1ccc(C(=O)Nc2cccc(Nc3ncc(Cl)c(-c4c[nH]c5ccccc45)n3)c2)cc1 [THZ1]
- binding to double-strand DNA [2]: can bind to double-strand DNA
- concentration of THZ1 in DNA tetrahedron ([3]; 0.2 μM DNA tetrahedron, ratio THZ1/DNA tetrahedron 10 to 50, UV 220 nm after G-25 column): increased linearly
- passage of THZ1/DNA complex through G-25 column ([3]; ratio THZ1/DNA tetrahedron 60): part of THZ1/DNA complex did not pass through the G-25 column
- inhibition of migration [4]: 57%
- cell growth [5]: partially growth inhibited
- cell aggregation [6]: not aggregated
- inhibition of invasion [7]: 51%

Compound: panitumumab: Anti-HER1 monoclonal antibody
- benefit to TNBC patients [8]: neither antibody confers significant benefit to TNBC patients
